In ChEMBL document CHEMBL4371042, “Molecular Mechanism of Inhibition of Acid Ceramidase by Carmofur” (J Med Chem, 2019):

Biological target: T1, Acid ceramidase (Homo sapiens, UniProt Q13510)
T1 sequence (Q13510 whole entry): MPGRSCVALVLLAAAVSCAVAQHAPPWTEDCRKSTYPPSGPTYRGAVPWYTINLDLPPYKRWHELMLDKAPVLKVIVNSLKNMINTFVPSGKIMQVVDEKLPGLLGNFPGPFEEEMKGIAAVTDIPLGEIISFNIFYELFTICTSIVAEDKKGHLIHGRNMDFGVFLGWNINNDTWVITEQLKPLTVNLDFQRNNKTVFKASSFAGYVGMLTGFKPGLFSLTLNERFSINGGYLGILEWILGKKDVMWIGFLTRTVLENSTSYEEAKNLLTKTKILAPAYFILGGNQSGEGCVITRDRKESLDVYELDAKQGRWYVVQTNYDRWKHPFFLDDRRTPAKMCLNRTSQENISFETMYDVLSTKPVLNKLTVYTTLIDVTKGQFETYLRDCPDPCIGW
Assay: Non-competitive inhibition of human acid ceramidase

Ki: 64 nM
SMILES: O=C(NCCCCc1ccccc1)n1c(=O)oc2ccccc21
